Data published in patent US7204974B2, “Stabilization of oxidation-sensitive or UV-sensitive active ingredients” (Beiersdorf AG, priority 2001, dated 2007).

Assay: Polarity of lipids
Assay type: physicochemical
Details: further lipids, polarity of ≧30 mN/m

Compound	Polarity mN/m [mN/m]
CCCCC(CC)COC(=O)CCCCCC(C)C (stereo not drawn) [2-Ethylhexyl Isononanoate]	31.0
Dioctylcyclohexane	39.0

Now from value to compound:

Polarity mN/m [mN/m]	Compound
43.8	CCCCCCCCCCCCCC(C)C [Isohexadecane]
31.6	CCCCCCCCOC(=O)CCCCCCCCCCCCCCC(C)C [Octyl Isostearate]
40.5	CCCCCCCC/C=C\CCCCCCCC(=O)OCCOCCOCC [Ethoxydiglycol Oleate]
31.1	CC(CCOC(=O)CC(C)CC(C)(C)C)CC(C)(C)C (stereo not drawn) [Trimethylhexyl Isononanoate]
41.9	CCCCCCCCCCCCCCCCCC(C)C [Isoeicosane]
36.2	Isocetyl Palmitate

Same assay, conditions: lipids with a polarity of at most 30 mN/m

Compound	Polarity mN/m [mN/m]
CCCCCCOCCCCCC [Dihexyl ether, Dihexyl Ether]	29.2
CCCCOC(=O)CCCCC(=O)OCCCC [Cetiol B, Dibutyl Adipate]	14.3
CC(C)CCCCCCCOC(=O)C(C)(C)C [DUB VCI 10, Isodecyl Neopentanoate]	29.9
CCCCCCC(CO)CCCC (stereo not drawn) [Isofol 12, Butyl Octanol]	17.4
CCCCC(CC)C(=O)OCCC(C)CC(C)(C)C (stereo not drawn) [Dermol 98, 2-Ethylhexanoic acid 3,5,5-trimethyl ester]	26.2
Isotridecyl 3,5,5-trimethylhexanonanoate [Dermol 139]	24.5
CC(C)CCCCCCCOC(=O)CC(C)CC(C)(C)C (stereo not drawn) [Dermol 109, Isodecyl 3,5,5-Trimethyl Hexanoate]	29.1
Cyclopolydimethylsiloxane [Dow Corning Fluid 244]	28.5
Cetearyl Isononanoate [Cetiol SN]	28.6
CCCCCCCCCCC(CO)CCCCCCCC (stereo not drawn) [Eutanol G, Octyldodecanol]	24.8
CCCCCCCCC(CO)CCCCCC (stereo not drawn) [Isofol 16, Hexyl Decanol]	24.3
CCCCCCCC(=O)OCCCCCCCC(C)C [Dermol 108, Isodecyl Octanoate]	29.6
CCCCCCC(CCCC)C(=O)O (stereo not drawn) [Isocarb 12, Butyl Octanoic Acid]	22.1
Cyclomethicone [DC Fluid 345]	28.5
CCCCCCCCCC(=O)OCCCC(C)C [Dermol IHD, Isohexyl Decanoate]	29.7
PEG 2 Diethylene Hexanoate [Dermol 488]	10.1

The remaining lines, values ahead:

Polarity mN/m [mN/m]	Compound
2.4	Triisostearin [Prisorine 2041 GTIS]
17.8	CCCCCCCCCCCCCCCCCCOC(=O)CCCCCC [Tegosoft SH, Stearyl Heptanoate]
21.9	CCCCCCCCCCCCCCCCCC(=O)OC(C)C [Isopropyl stearate, Isopropyl Stearate]
22.1	CCCCCCCCCCCCCC(=O)OCC(CCCCCCCC)CCCCCCCCCC (stereo not drawn) [M.O.D., Octyldodecyl Myristate]
22.7	Phenyl Trimethicone [Silicone oil VP 1120]
20.2	CCCCCCCC(=O)OCC(COC(=O)CCCCCCC)OC(=O)CCCCCCC [Trivent OCG, Tricaprylin]
